Where “and” joins values, the source holds several entries; their conditions need not be identical. Identical values can stand only once.
Columns and labels:
[1] = target: T1, caspase 7 (Homo sapiens, UniProt P55210); settings: cited from earlier work
T1 sequence (P55210 24-198 limits assumed): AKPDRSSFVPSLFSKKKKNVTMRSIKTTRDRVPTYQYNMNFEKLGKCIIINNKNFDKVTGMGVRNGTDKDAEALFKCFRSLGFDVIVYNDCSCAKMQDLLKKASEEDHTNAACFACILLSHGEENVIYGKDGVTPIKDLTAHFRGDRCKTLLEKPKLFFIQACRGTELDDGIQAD
T1 sequence (P55210 207-303 limits assumed): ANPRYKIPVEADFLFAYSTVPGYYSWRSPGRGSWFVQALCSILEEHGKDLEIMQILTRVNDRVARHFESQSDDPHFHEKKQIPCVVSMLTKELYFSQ

[2] = target: T2, caspase 3 (Homo sapiens, UniProt P42574); settings: cited from earlier work
T2 sequence (P42574 29-175 limits assumed): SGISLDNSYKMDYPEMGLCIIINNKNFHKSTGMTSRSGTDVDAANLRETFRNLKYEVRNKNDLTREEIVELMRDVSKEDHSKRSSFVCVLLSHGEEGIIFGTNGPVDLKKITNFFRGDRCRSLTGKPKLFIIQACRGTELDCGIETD
T2 sequence (P42574 176-277 limits assumed): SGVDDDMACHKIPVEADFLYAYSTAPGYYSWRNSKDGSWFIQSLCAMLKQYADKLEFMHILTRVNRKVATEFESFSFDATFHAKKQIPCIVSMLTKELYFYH

[3] = target: T3, caspase 1 (Homo sapiens, UniProt P29466); settings: cited from earlier work
T3 sequence (P29466 120-297 limits assumed): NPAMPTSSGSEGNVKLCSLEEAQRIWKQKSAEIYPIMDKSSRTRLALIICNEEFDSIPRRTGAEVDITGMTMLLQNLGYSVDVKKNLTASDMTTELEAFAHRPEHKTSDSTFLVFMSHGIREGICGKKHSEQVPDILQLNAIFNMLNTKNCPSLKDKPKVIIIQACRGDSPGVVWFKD
T3 sequence (P29466 317-404 limits assumed): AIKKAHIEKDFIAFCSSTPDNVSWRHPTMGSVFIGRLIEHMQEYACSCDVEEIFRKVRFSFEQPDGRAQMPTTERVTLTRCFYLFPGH

[4] = target: T4, caspase 4 (Homo sapiens, UniProt P49662); settings: cited from earlier work
T4 sequence (P49662 81-270 limits assumed): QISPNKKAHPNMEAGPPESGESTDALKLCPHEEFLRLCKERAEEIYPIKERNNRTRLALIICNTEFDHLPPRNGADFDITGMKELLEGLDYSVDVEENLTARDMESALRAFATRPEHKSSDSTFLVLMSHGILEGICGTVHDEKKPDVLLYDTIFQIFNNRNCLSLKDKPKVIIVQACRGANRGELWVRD
T4 sequence (P49662 290-377 limits assumed): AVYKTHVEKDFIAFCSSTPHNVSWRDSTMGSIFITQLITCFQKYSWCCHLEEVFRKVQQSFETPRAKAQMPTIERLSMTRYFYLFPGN

[5] = test system: photoreceptor cell death (TUNEL-positive cells in the ONL); test: TUNEL staining 24 hours after retinal detachment with subretinal administration of cytokines; format: in vivo, rat; settings: subretinal 5 μl of 0.1 μg/μl, PBS control 15.3±5.4, n=7
Method: Retinal detachment was induced by subretinal injection of sodium hyaluronate. Retinal tissues were collected at various time points (1, 3, 6, 24, 72 hours) after inducing retinal detachment. Neural retina was homogenized, and mRNA expression was quantified by QPCR. To identify the cellular sources of expressed genes, samples from various retinal layers were obtained using LCM. Immunohistochemistry and Enzyme Linked-Immuno-Sorbent Assay (ELISA) were performed to show expressional changes of proteins. TUNEL staining was used in order to assess photoreceptor death induced by retinal detachment with or without subretinal administration of cytokines.
Fifty-five adult male Brown Norway rats (200-300 g, Charles River, Boston, Mass.) were used in this study. Rats were anesthetized with a 1:1 mixture of ketamine (100 mg/mL) and xylazine (20 mg/mL; both from Phoenix Pharmaceutical, St. Joseph, Mo.). Pupils were dilated with a topically applied mixture of phenylephrine (5.0%) and tropicamide (0.8%; Massachusetts Eye and Ear Infirmary internal formulary preparation). A sclerotomy was created approximately 2 mm posterior to the limbus with a 22-gauge needle. Care was taken not to damage the lens during creation of the sclerotomy. A Glaser subretinal injector (20-gauge shaft with a 32-gauge tip, BD Biosciences, San Jose, Calif.) connected to a syringe filled with 10 mg/mL Healon® sodium hyaluronate (Pharmacia and Upjohn Co., Kalamazoo, Mich.) was then introduced into the vitreous cavity. […]
Subretinal administration of select cytokines was performed following the creation of retinal detachment. […] TUNEL-positive cells were counted in a masked fashion, and standard error was determined.
To investigate effects of cytokines on photoreceptor cell death induced by retinal detachment, TUNEL staining was performed 24 hours after retinal detachment with subretinal administration of PBS, TNF-alpha (0.1 μg/μl), IL-1 beta (0.1 μg/μl), or MCP-1 (0.1 μg/μl). […] In the control condition with PBS, TUNEL-positive cells were detected in the ONL 24 hours after retinal detachment (15.3±5.4 cells/field, n=7). […]

[6] = test system: photoreceptor cell death (TUNEL-positive response in the ONL); test: TUNEL analysis 72 hours after retinal detachment with subretinal TNF-alpha suppressing agents; format: in vivo, rat; settings: subretinal 5 μl, 2 mg/mL, FIG. 12
Method: Retinal detachments were created only in the right eye of each animal, and the left eye served as a control. Following retinal detachment, various treatments were administered subretinally using a Hamilton syringe equipped with a 32-gauge needle. The tip of needle was introduced through a sclerotomy and retinal hole into the subretinal space, and 5 μl of solution, either normal goat serum (0.1 mg/mL), goat anti-TNF-alpha antibody (0.1 mg/mL), or etanercept (2 mg/mL), was injected over 3 minutes. Seventy-two hours after retinal detachment, the eyes were subjected to TUNEL analysis.

[7] = test system: mRNA levels of bFGF, TNF-alpha, IL-1 beta; test: Realtime PCR of cytokine mRNA in detached retina after intravitreal PEDF; format: in vivo, rat; settings: 5.0 μg intravitreal injection just after detachment versus PBS control; FIG. 16
Method: (§1) For both sets of experiments, all eyes were enucleated 72 hours after retinal detachment and embedded in paraffin. Four micron sections through the area of detachment, including the optic nerve, were obtained. Light microscopy was performed at 3× and at 32× magnification using hematoxylin-eosin staining. TUNEL staining was performed using a commercial kit (Oncogene, San Diego, Calif.) and viewed at 20× magnification using green fluorescein staining for TUNEL and blue DAPI nuclear staining. TUNEL-positive cells were counted per millimeter of tissue by a masked observer. The mean number of TUNEL-positive cells per millimeter of tissue was determined by averaging the number of TUNEL-positive cells per mm of tissue in three sections of each eye. Additionally, a realtime polymerase chain reaction (PCR) was performed for a variety of cytokines, including bFGF, TNF-alpha, and IL-1 beta, on extracted retina from normal eyes (n=6), untreated eyes with retinal detachment (n=6), PEDF-treated eyes with retinal detachment (n=6) and PBS-treated eyes with retinal detachment (n=6).
A realtime PCR was performed for a variety of cytokines, including bFGF, PEDF, TNF-alpha, IL-1 beta, HGF, CNTF, TGF beta, and IGF 1. The amount of each mRNA from each of six eyes treated with a 5.0 μg intravitreal injection of PEDF just after detachment was averaged. […]

[8] = test system: photoreceptor cell death (TUNEL-positive cells); test: TUNEL staining 72 hours after retinal detachment with intravitreal or subretinal PEDF; format: in vivo, rat; settings: for difference in number of TUNEL-positive cells, intravitreally-injected control eyes versus intravitreally-injected PEDF eyes: intravitreal; for Number of TUNEL-Positive Cells, Mean: 72 hours
Method: In these experiments, retinal detachments were created in Brown Norway rats by injecting […] into the subretinal space using a transvitreous approach. Treatment with PEDF (BioProducts MD, Middletown, Md.) or control vehicle was administered immediately after detachment. In an initial set of experiments, the treatment groups included: intravitreal administration of 2.5 μg PEDF (n=6); intravitreal administration of 5.0 μg PEDF (n=9); subretinal administration of 2.5 μg PEDF (n=6); subretinal administration of 5.0 μg PEDF (n=9); intravitreal administration of control vehicle (n=3); and subretinal administration of control vehicle (n=3). In a second set of experiments, the treatment groups included: intravitreal administration of 5.0 μg PEDF (n=15); subretinal administration of 5.0 μg PEDF (n=15); intravitreal administration of control vehicle (n=9); and subretinal administration of control vehicle (n=9).
as §1

Molecule: 2-Val-Ala-Asp-fluoromethylketone
- caspase inhibition [1]: inhibits
- caspase inhibition [2]: inhibits
- caspase inhibition [3]: inhibits
- caspase inhibition [4]: inhibits

Molecule: Ac-Tyr-Val-Ala-Asp-aldehyde
- Ki [1]: ≥ 50 µM
- Ki [2]: ≥ 50 µM
- Ki [3]: 10 nM
- Ki [4]: 10 nM

Molecule: MCP-1: rat recombinant MCP-1 administered subretinally
- number of TUNEL-positive cells in the ONL [5]: 67.7±46.5 cells/field

Molecule: TNF-alpha
- number of TUNEL-positive cells in the ONL [5]: did not change significantly

Molecule: etanercept
- TUNEL-positive response in the ONL as compared to controls [6]: significantly decreased

B1: PEDF: pigment epithelium-derived factor (BioProducts MD), neurotrophic factor (protein, UniProt P36955 20-418, looked up)
Pigment epithelium-derived …: QNPASPPEEGSPDPDSTGALVEEEDPFFKVPVNKLAAAVSNFGYDLYRVRSSTSPTTNVLLSPLSVATALSALSLGAEQRTESIIHRALYYDLISSPDIHGTYKELLDTVTAPQKNLKSASRIVFEKKLRIKSSFVAPLEKSYGTRPRVLTGNPRLDLQEINNWVQAQMKGKLARSTKEIPDEISILLLGVAHFKGQWVTKFDSRKTSLEDFYLDEERTVRVPMMSDPKAVLRYGLDSDLSCKIAQLPLTGSMSIIFFLPLKVTQNLTLIEESLTSEFIHDIDRELKTVQAVLTVPKLKLSYEGEVTKSLQEMKLQSLFDSPDFSKITGKPIKLTQVEHRAGFEWNEDGAGTTPSPGLQPAHLTFPLDYHLNQPFIFVLRDTDTGALLFIGKILDPRGP
- effect on mRNA levels of bFGF, TNF-alpha, IL-1 beta, or any of the cytokines measured [7]: does not significantly alter
- difference in number of TUNEL-positive cells, intravitreally-injected control eyes versus intravitreally-injected PEDF eyes ([8]; initial set of experiments): no statistically significant difference
- Number of TUNEL-Positive Cells, Mean ([8]; initial set of experiments, intravitreal 2.5 μg, control 23.3): 16.9 TUNEL-positive cells per millimeter of tissue
- Number of TUNEL-Positive Cells, Mean ([8]; initial set of experiments, intravitreal 5.0 μg, control 23.3): 28.4 TUNEL-positive cells per millimeter of tissue
- Number of TUNEL-Positive Cells, Mean ([8]; initial set of experiments, subretinal 2.5 μg, control 63.8): 17.6±15.5 TUNEL-positive cells per millimeter of tissue and 17.7 TUNEL-positive cells per millimeter of tissue
- Number of TUNEL-Positive Cells, Mean ([8]; initial set of experiments, subretinal 5.0 μg, control 63.8): 30.4±18.1 TUNEL-positive cells per millimeter of tissue and 30.4 TUNEL-positive cells per millimeter of tissue
- effect on photoreceptor cell death following retinal detachment as measured using TUNEL ([8]; larger sample set, either subretinally or intravitreally): no significant effect
- difference in number of TUNEL-positive cells, intravitreally-injected control eyes versus intravitreally-injected PEDF eyes ([8]; second set of experiments): no statistically significant difference
- Number of TUNEL-Positive Cells, Mean ([8]; second set of experiments, intravitreal 5.0 μg, control 30.2): 30.3 TUNEL-positive cells per millimeter of tissue

B2: IL-1 beta: rat recombinant IL-1 beta administered subretinally (protein, UniProt Q63264 117-268, looked up)
Interleukin-1 beta: VPIRQLHCRLRDEQQKCLVLSDPCELKALHLNGQNISQQVVFSMSFVQGETSNDKIPVALGLKGLNLYLSCVMKDGTPTLQLESVDPKQYPKKKMEKRFVFNKIEVKTKVEFESAQFPNWYISTSQAEHRPVFLGNSNGRDIVDFTMEPVSS
- number of TUNEL-positive cells in the ONL [5]: did not change significantly
